The values that follow come from patent US20250340701A1, “DENDRIMER-DELIVERED ALPHA-PARTICLE RADIOTHERAPY FOR TREATMENT OF GLIOBLASTOMA AND OTHER CANCERS IN THE BRAIN” (priority 2022, published 2025).

The assay deals with GL261 glioblastoma cells. Put plainly: Colony survival measurement, GL261 glioblastoma cells. It counts as cell-based, murine. As for the experimental part:
GL261 glioblastoma cells were incubated with different radioactivity concentrations of ^225Ac-DOTA dendrimer; cells were plated for colony survival measurement.
Cells, plated at 500,000 cells per well, were plated in 6-well plates and were allowed to adhere overnight before being incubated with varying concentrations of radioactivity (4.63, 9.25, 18.5, 37, 74 kBq/mL) at pH 7.4 for a duration of 6 hours. In case of the combination runs with temozolomide (TMZ), the free drug incubation at respective concentrations, was performed simultaneously with the radioactivity for a duration of 6 hours. […] Once cell colonies were observed (approximately 6 weeks for the cancer cells and approximately 3 weeks for the macrophages), the media was removed, dishes were washed with water, and the colonies were fixed and stained using 6% (w/v) glutaraldehyde and 0.05% (w/v) Crystal violet, respectively, following which they were counted using a colony counter pen. The number of colonies counted for each of the treatment groups was then normalized by the number of colonies from the control group to obtain the survival fraction, while accounting for the plating efficiency. The same procedure was used to obtain the survival fractions for free chemotherapeutic treatment, replacing the radioactivity concentrations with free chemotherapeutic concentration while incubating the cells. […]

As to `O=C([O-])CN1CCN(CC(=O)[O-])CCN(CC(=O)[O-])CCN(CC(=O)[O-])CC1.[225Ac+3]` [^225Ac-DOTA], the “colony survival fraction of GL261 cells versus resting and activated BV2 macrophages” value (FIG. 8 left) was “significantly lower”. The “GL261 colony survival fraction in the presence of TMZ versus without TMZ” value (TMZ incubated simultaneously for 6 hours, at 2.1-3.7 times less than its IC50, FIG. 10 left, FIG. 12) is reported as “lower”.
